Test system: C6 glial cells
Assay: Ca2+ mobilization in GDNF peptide-treated C6 glial cells (Calcium Crimson-AM fluorescence)
Type: cell-based
Conditions: for change in Ca2+ mobilization relative to control samples: external Ca2+ containing buffer, FIG. 6; for change in Ca2+ mobilization relative to control samples / change in fluorescence relative to the control sample: peptide 1 7.0 μM, peptide 2 2.3 μM, peptide 3 0.8 μM; for change in fluorescence relative to the control sample: external Ca2+ free buffer, FIG. 5
Description: We evaluated the ability of the GDNF peptides to activate G-protein associated transmembrane receptors. C6 glial cells were incubated with GDNF peptides, either singly or in combination, and calcium mobilization was monitored as a index of receptor activation.
GDNF peptides were custom synthesized via automated solid-phase methods using FMOC chemistry, HPLC purified, and characterized at the Small Peptide Synthesis Resource of the KECK Facility at Yale University. C6 glial cells were cultured to 80% confluency in the presence of GDNF peptides and loaded with the Ca^2+-sensitive fluorescent indicator dye, Calcium Crimson-AM (5 μM dye in Me2SO) at 37° C. for 20 min. Approximately 10^3 cells were then transferred into a quartz cuvette and the change in intracellular fluorescence was monitored in real time using an ISI Fluorescence spectrophotometer with an excitation wavelength of 590 nm. Emissions were monitored at 615 nm. An increase in fluorescence units was indicative of a rise in internal calcium.
C6 glial cells were cultured as above and incubated in increasing concentrations (0.8 μM; 1.6 μM; 2.4 μM; 3.2 μM and 4.0 μM) of GDNF-derived peptide (FPLPA (SEQ ID NO:4)). Fluorescence was measured according to the method in Example 3.
C6 glial cells were cultured as above and incubated in increasing concentrations (7.0 μM; 14 μM; 21 μM; 28 μM and 35 μM) of GDNF-derived peptide (PPEAPAEDRSL (SEQ ID NO:5)). Fluorescence was measured according to the method in Example 3.
C6 glial cells were cultured as above except that no Ca^2+ was present in the media. Cells were incubated with GDNF-derived peptides according to the experimental design indicated in Table 2 and the combinations in FIG. 5. Fluorescence was measured according to the method in Example 3.
C6 glial cells were cultured according to the method in Example 3. Cells were incubated with GDNF-derived peptides according to the experimental design indicated in Table 2 and the combinations in FIG. 6. Fluorescence was measured according to the method in Example 3.

Row | Substance | change in Ca2+ mobilization relative to control samples | change in fluorescence relative to the control sample | Ca2+ mobilization (fluorescence), dose response (FPLPA at 0.8, 1.6, 2.4, 3.2 and 4.0 μM, FIG. 3) | Ca2+ mobilization (fluorescence), dose response (PPEAPAEDRSL at 7.0, 14, 21, 28 and 35 μM, FIG. 4)
1 | ERNRQAAAANPENSRGK (listed as Homo sapiens) [GDNF-derived peptide, 17-mer] | decrease in Ca^2+ mobilization | moderate increases | – | –
2 | FPLPA (listed as Homo sapiens) [GDNF-derived peptide, 5-mer] | decrease in Ca^2+ mobilization | moderate increases | dose-dependent increase in Ca^2+ mobilization at peptide concentrations up to 3.2 μM, followed by a decrease at 4.0 μM | –
3 | PPEAPAEDRSL (listed as Homo sapiens) [GDNF-derived peptide, 11-mer] | increase in Ca^2+ mobilization | moderate increases | – | dose-dependent increase in Ca^2+ mobilization

Reference: patent US20090069230A1, “GDNF-DERIVED PEPTIDES” (The Research Foundation of State University of New York, priority 2007, published 2009)
